In US8013006B2:

Each compound was assayed on HCV replicon (assay: microbe, parasite or virus in culture). Conditions: Hepatitis C virus, 48 h, read-out: Replicon IC5Os μM.
Format: cell-based
For `CC(=O)OCc1c(OC(C)=O)ccc2c([N+](=O)[O-])c(C)n(-c3ccc(C)cc3)c12` [Compound 1], the IC50 was > 2 µM.

Same assay, conditions: Replicon IC50 values are determined by firefly luciferase signal; bicistronic replicon, 2 days; read-out: Replicon IC5Os
In the case of `COc1ccc(-n2c(C)c([N+](=O)[O-])c3cc(CN(C)C)c(O)cc32)cc1` [Compound 3], the IC50 is reported as > 2 µM. `CC(C)n1cc(C#N)c2ccc(O)cc21` [Compound 6] was tested, and the IC50 was > 2 µM. Compound `COc1ccc2c(C#N)cn(-c3ccc(C)c(C)c3)c2c1` [Compound 8] has an IC50 of 0.5 to 2 µM. In the case of `CCCCOc1ccc2c(C#N)cn(CC)c2c1` [Compound 11], the IC50 is reported as > 2 µM. With `CCn1cc(C#N)c2ccc(OCc3ccccc3)cc21` [Compound 12] the IC50 was 0.5 to 2 µM. In the case of `CCOC(=O)c1cn(CC)c2cc(OC)ccc12` [Compound 17], the IC50 is reported as > 2 µM. `CCn1cc(C#N)c2ccc(OC(F)F)cc21` [Compound 18] was tested, and the IC50 was > 2 µM. In the case of `CCn1c(-c2ccoc2)c(C#N)c2ccc(OC)cc21` [Compound 20], the IC50 is reported as > 2 µM. `CCn1c(-c2ccccc2)c(C#N)c2ccc(OC)cc21` [Compound 21] was tested, and the IC50 was > 2 µM. Work on `CCn1cc(C#N)c2ccc(-n3cccc3)cc21` [Compound 27] yielded an IC50 of 0.5 to 2 µM. With `CCn1cc(-c2noc(C3CC3)n2)c2ccc(OC)cc21` [Compound 29] the IC50 was > 2 µM. For `CCNc1c(C(=O)OC)c2ccc([N+](=O)O)cc2n1CC` [Compound 30], the IC50 was > 2 µM. In the case of `CCn1cc(C(=O)c2ccccc2)c2cc(OC)ccc21` [Compound 32], the IC50 is reported as > 2 µM. `CCn1cc(C(=O)c2ccccc2)c2ccc(OC)cc21` [Compound 33] was tested, and the IC50 was > 2 µM. In the case of `CCC(=O)c1cn(CC)c2cc(OC)ccc12` [Compound 34], the IC50 is reported as > 2 µM. In the case of `CCn1cc(C(=O)C(C)C)c2ccc(OC)cc21` [Compound 37], the IC50 is reported as > 2 µM. With `CCn1cc(C(=O)c2cccc(OC)c2)c2ccc(OC)cc21` [Compound 38] the IC50 was > 2 µM. In the case of `CCn1cc(C(=O)c2cccc(OC)c2)c2cc(OC)ccc21` [Compound 39], the IC50 is reported as > 2 µM. For `COc1ccc(-c2c[nH]c3ccc([N+](=O)O)cc23)cc1` [Compound 40], the IC50 was > 2 µM. `COc1ccc(-n2cc(C(C)=O)c3cc(OC)ccc32)cc1` [Compound 42, 1-[5-methoxy-1-(4-methoxyphenyl)-1-H-indol-3-yl]-ethanone] was tested, and the IC50 was > 2 µM. With `CC(C)n1cc(C#N)c2cc3c(cc21)OCO3` [Compound 43] the IC50 was > 2 µM. `CCOC(=O)c1c(C)n(-c2ccc(OC)cc2)c2cc(OC(F)F)ccc12` [Compound 46] was tested, and the IC50 was > 2 µM. For `COc1ccc(-n2cc(C(=O)c3ccc(F)cc3)c3ccc(OC)cc32)cc1` [Compound 47], the IC50 was > 2 µM. `N#Cc1cn(C(F)F)c2cc(OC(F)F)ccc12` [Compound 50] was tested, and the IC50 was > 2 µM. In the case of `CC(C)n1cc(C#N)c2cc3c(cc21)OCCO3` [Compound 52], the IC50 is reported as > 2 µM. `CCn1cc(-c2ccno2)c2ccc(C(=O)OC)cc21` [Compound 60] was tested, and the IC50 was > 2 µM. With `CCn1cc(-c2ccn[nH]2)c2ccc(C(=O)OC)cc21` [Compound 61] the IC50 was > 2 µM. `CCOC(=O)c1cn(CC)c2cc3c(cc12)OCO3` [Compound 62] was tested, and the IC50 was > 2 µM. With `CCn1c(-c2ccc(C(C)(C)C)cc2)c(C#N)c2ccc(OC)cc21` [Compound 63] the IC50 was > 2 µM. For `CCn1c(C#Cc2ccccc2)c(C#N)c2ccc(OC)cc21` [Compound 64], the IC50 was > 2 µM. `CCn1c(C#Cc2ccc(OC)cc2)c(C#N)c2ccc(OC)cc21` [Compound 65] showed an IC50 of 0.5 to 2 µM. `CCn1c(C#Cc2cccc(OC)c2)c(C#N)c2ccc(OC)cc21` [Compound 66] was tested, and the IC50 was > 2 µM. `CCn1c(C#Cc2ccc(C)cc2)c(C#N)c2ccc(OC)cc21` [Compound 68] was tested, and the IC50 was 0.5 to 2 µM. For `CCOc1ccc(-c2c(C#N)c3ccc(OC)cc3n2CC)cc1` [Compound 70], the IC50 was > 2 µM. `CCn1c(-c2ccc(C(=O)N(C)C)cc2)c(C#N)c2ccc(OC)cc21` [Compound 71] was tested, and the IC50 was > 2 µM. With `CCn1c(-c2ccc(OC)c(F)c2)c(C#N)c2ccc(OC)cc21` [Compound 74] the IC50 was > 2 µM. In the case of `COc1ccc(-c2c(C#N)c3ccc(OC)cc3n2C)cc1` [Compound 76], the IC50 is reported as > 2 µM. For `CCOc1ccc(-c2c(C#N)c3ccc(OC)cc3n2C)cc1` [Compound 77], the IC50 was > 2 µM. `CCn1cc(-c2nccs2)c2ccc(C(=O)OC)cc21` [Compound 78] was tested, and the IC50 was > 2 µM. With `CCn1c(-c2ccc(C(C)C)cc2)c(C#N)c2ccc(C(N)=O)cc21` [Compound 79] the IC50 was > 2 µM. With `CCn1c(-c2ccc(NS(=O)(=O)CC)cc2)c(C#N)c2ccc(OC)cc21` [Compound 83] the IC50 was < 0.5 µM. In the case of `COc1ccc2c(C#N)c(-c3ccc(NS(C)(=O)=O)cc3)n(C3CCC3)c2c1` [Compound 87], the IC50 is reported as < 0.5 µM. In the case of `COc1ccc(-n2cc(C#N)c3ccc(C(=O)NO)cc32)cc1` [Compound 89], the IC50 is reported as 0.5 to 2 µM. With `COc1ccc(-n2cc(C#N)c3ccc(NC(=O)OC(C)(C)C)cc32)cc1` [Compound 90] the IC50 was > 2 µM. `COc1ccc(C#Cc2c(C#N)c3ccc(OC)cc3n2C)cc1` [Compound 92] was tested, and the IC50 was > 2 µM. `COc1ccc2c(C#N)c(C#Cc3ccc(F)cc3)n(C)c2c1` [Compound 93] was tested, and the IC50 was > 2 µM. For `COc1ccc(-n2cc(C#N)c3ccc(NC(=O)NC(C)(C)C)cc32)cc1` [Compound 98], the IC50 was > 2 µM. In the case of `COc1ccc2c(C#N)c(-c3cccc(C)c3)n(C)c2c1` [Compound 100], the IC50 is reported as > 2 µM. With `COc1ccc(-n2cc(C#N)c3ccc(F)cc32)cc1` [Compound 102] the IC50 was > 2 µM. In the case of `COc1ccc(-n2cc(C#N)c3ccc(C)cc32)cc1` [Compound 103], the IC50 is reported as > 2 µM. With `COc1ccc(-n2cc(-c3nc(C(C)(C)C)cs3)c3ccc(C(N)=O)cc32)cc1` [Compound 104] the IC50 was 0.5 to 2 µM. In the case of `COC(=O)c1ccc2c(-c3nc(-c4ccncc4)cs3)cn(-c3ccc(OC)cc3)c2c1` [Compound 105], the IC50 is reported as > 2 µM. `COc1ccc(-n2cc(-c3nc(-c4ccc(Cl)c(Cl)c4)cs3)c3ccc(C(N)=O)cc32)cc1` [Compound 106] was tested, and the IC50 was > 2 µM. With `CCn1cc(C#N)c2cc(Br)ccc21` [Compound 108] the IC50 was > 2 µM. In the case of `CCCn1cc(C#N)c2cc(Br)ccc21` [Compound 109], the IC50 is reported as > 2 µM. `CCOC(=O)c1ccc(-c2c(C#N)c3ccc(OC)cc3n2CC)cc1` [Compound 110] showed an IC50 of 0.5 to 2 µM. `Cc1ccc2c(C#N)cn(-c3ccc4c(c3)OCO4)c2c1` [Compound 112] was tested, and the IC50 was 0.5 to 2 µM. With `CCn1c(-c2ccc(C(=O)N3CCCC3)cc2)c(C#N)c2ccc(OC)cc21` [Compound 113] the IC50 was > 2 µM. In the case of `CCn1c(-c2ccc(C(=O)N3CCOCC3)cc2)c(C#N)c2ccc(OC)cc21` [Compound 114], the IC50 is reported as > 2 µM. In the case of `N#Cc1c[nH]c2cc(Cl)ccc12` [Compound 115], the IC50 is reported as > 2 µM. With `COc1ccc(-n2cc(C#N)c3ccccc32)cc1` [Compound 117] the IC50 was > 2 µM. `CCn1cc(C#N)c2ccc(Cl)cc21` [Compound 118] gave an IC50 of 0.5 to 2 µM. `CCn1c(-c2ccc(NC(=O)OCc3ccccc3)cc2)c(C#N)c2ccc(OC)cc21` [Compound 122] was tested, and the IC50 was > 2 µM. With `CCn1cc(C#N)c2ccc(C(F)(F)F)cc21` [Compound 123] the IC50 was > 2 µM. With `Cc1ccc2c(C#N)c(C)n(-c3ccc4c(c3)OCO4)c2c1` [Compound 125] the IC50 was 0.5 to 2 µM. `CCn1cc(C#N)c2ccc(Br)cc21` [Compound 126] was tested, and the IC50 was > 2 µM. With `COc1ccc(-n2cc(C#N)c3ccc(Br)cc32)cc1` [Compound 127] the IC50 was > 2 µM. With `CCn1c(C#Cc2cccc3ccccc23)c(C#N)c2ccc(OC)cc21` [Compound 133] the IC50 was 0.5 to 2 µM. `CCn1c(C#Cc2ccccc2Br)c(C#N)c2ccc(OC)cc21` [Compound 136] was tested, and the IC50 was 0.5 to 2 µM.
